Consider 11 compounds from patent US8562986B2, “Engineered anti-alpha V-integrin hybrid antibodies” (Merck Patent GmbH, priority 2007, dated 2013).

One experiment has as its system HUVEC. In words: cells. Conditions: for additive effect with Cilengitide: chemotherapeutic combined with Cilengitide; for additive effect with DI-17E6: chemotherapeutic combined with DI-17E6; for additive effect with Mab 17E6: chemotherapeutic combined with Mab 17E6. How it is done: The experimental design gives answer to the question whether blockade of the one lowered the IC50 of the other for blockade endothelial cell growth in the presence of tumor growth factors VEGFA and FGF2.
Plates were coated with 100 μl VN at 1 μg/ml in PBS per 96-well at 4° C. overnight. […] When added in combination the two test substances were mixed at the starting concentrations and the mixture was serially diluted as for the single agents alone. In some assays the chemotherapeutics were serially diluted in the presence of a constant amount of the alpha V blockers at the IC50 or IC70 concentrations. Plates were incubated for 72 hours, then relative cell number was determined by the addition of 20 ul/well Alamar Blue (Resazurin).
Points were run in duplicate or in triplicate. Reagent blanks, containing media plus Alamar Blue without cells, were run on each plate.
Tests were routinely run using HUVEC in media containing 10 ng/ml FGF-2 or HDMVEC in media containing 10 ng/ml VEGF.

The test system of another experiment is NP18-b3 pancreatic tumor. In words: Orthotopic pancreatic xenograft. Format: in vivo, nude mice. Conditions: EMD 525797 500 μg per animal or gemcitabine 50 mg/Kg, i.p. 3 times a week; 6 weeks. On the procedure:
NP18-b3 pancreatic human cell line, which expresses αvβ3-integrin, was implanted orthotopically into the pancreas of immunosuppressed mice. The animals were randomized to and one week later treatment with drugs and vehicle started.
Tumors were removed and cut into pieces of 10 mg each. These pieces were then sutured to the pancreas of healthy animals (one piece per animal). 4-6 weeks later, tumors were removed, cut into pieces again and stitched into new animals. Those new animals were then randomized and one week later treatment with drugs and vehicle was started. EMD 525797 was dosed i.p. at 500 μg per animal three times a week. Gemcitabine was administered as a suboptimal dose of 50 mg/Kg 3 times a week (suboptimal dose based on previous studies). In a fourth group, EMD 525797 was combined with suboptimal doses of gemcitabine based on previous experiments. Tumor growth measurement (weight of the removed tumors) was made 6 weeks after the tumor grafting.

Where [1] appears, read: Homo sapiens, HUVEC, 72 h, 10 ng/ml FGF-2, 72 hours, single agent.
Setting [2] is: HUVEC, 10 ng/ml FGF-2, 72 hours, single agent.

The structures appear in SMILES notation. Read-outs that look alike come from different tables or passages of the source.

With `Nc1ccn([C@@H]2O[C@H](CO)[C@@H](O)C2(F)F)c(=O)n1` [Gemcitabine], in the experiment on HUVEC (setting [1]), the IC50 (in general, the concentration needed to halve the response being measured) was determined as 4 nM. Also, in the experiment with HUVEC, the “additive effect with Cilengitide” value is recorded as “yes”, the “additive effect with DI-17E6” value was “yes” and the “additive effect with Mab 17E6” value is reported as “yes”. In the experiment with NP18-b3 pancreatic tumor, the “tumor size and weight, monotherapy” value is reported as “not active”.
As for `CC[C@@]1(O)C(=O)OCc2c1cc1n(c2=O)Cc2cc3ccccc3nc2-1` [Camptothecin], the IC50 in the experiment with HUVEC (setting [1]) is 80 nM. Also, in the experiment on HUVEC, the “additive effect with Cilengitide” value is recorded as “yes”, the “additive effect with DI-17E6” value is “yes” and the “additive effect with Mab 17E6” value is given as “yes”.
In the case of `N[C@@H](Cc1ccc(N(CCCl)CCCl)cc1)C(=O)O` [Melphalan], the IC50 in the experiment with HUVEC (Homo sapiens, HUVEC, 72 h) came out at 11400 nM. Besides, in the experiment with HUVEC, the “additive effect with Cilengitide” value was “yes”, the “additive effect with DI-17E6” value is given as “yes” and the “additive effect with Mab 17E6” value was “yes”.
Regarding `COc1cccc2c1C(=O)c1c(O)c3c(c(O)c1C2=O)C[C@@](O)(C(=O)CO)C[C@@H]3O[C@H]1C[C@H](N)[C@H](O)[C@H](C)O1` [Doxorubicin], in the experiment with HUVEC (setting [1]), the IC50 amounted to 200 nM. Further, in the experiment with HUVEC, the “additive effect with Cilengitide” value was “yes”, the “additive effect with DI-17E6” value is given as “yes” and the “additive effect with Mab 17E6” value is “yes”.
On to `C[C@]12CC[C@@H]3c4ccc(OC(=O)N(CCCl)CCCl)cc4CC[C@H]3[C@@H]1CC[C@@H]2O` [Estramustine], for which the IC50 in the experiment on HUVEC (Homo sapiens, HUVEC, 72 h) came to 182000 nM. In the experiment on HUVEC, the “additive effect with Cilengitide” value is listed as “no”, the “additive effect with DI-17E6” value is “no” and the “additive effect with Mab 17E6” value was “no”.
Take `N.N.[Cl][Pt][Cl]` [Cisplatinin]: in the experiment with HUVEC (setting [2]), the IC50 turned out to be 13200 nM. In the experiment with HUVEC, the “additive effect with Cilengitide” value was “yes”, the “additive effect with DI-17E6” value was “yes” and the “additive effect with Mab 17E6” value is recorded as “yes”.
`CC[C@]1(O)C[C@H]2CN(CCc3c([nH]c4ccccc34)[C@@](C(=O)OC)(c3cc4c(cc3OC)N(C=O)[C@H]3[C@@](O)(C(=O)OC)[C@H](OC(C)=O)[C@]5(CC)C=CCN6CC[C@]43[C@@H]65)C2)C1` [Vincrisitin]: the half-maximal inhibitory concentration (IC50) with HUVEC (setting [1]) was determined as 0.7 nM. Further, in the experiment on HUVEC, the “additive effect with Cilengitide” value was “yes”, the “additive effect with DI-17E6” value is on record as “yes” and the “additive effect with Mab 17E6” value is “yes”.
Take `COc1cc([C@@H]2c3cc4c(cc3[C@@H](O[C@@H]3O[C@@H]5CO[C@@H](C)O[C@H]5[C@H](O)[C@H]3O)[C@H]3COC(=O)[C@H]23)OCO4)cc(OC)c1O` [Etoposide]: the IC50 in the experiment on HUVEC (setting [1]) was 700 nM. Also, in the experiment on HUVEC, the “additive effect with Cilengitide” value is “yes”, the “additive effect with DI-17E6” value is listed as “yes” and the “additive effect with Mab 17E6” value was “yes”.
Turning to `CC(=O)O[C@H]1C(=O)[C@@]2(C)[C@H]([C@H](OC(=O)c3ccccc3)[C@]3(O)C[C@H](OC(=O)[C@H](O)[C@@H](NC(=O)c4ccccc4)c4ccccc4)C(C)=C1C3(C)C)[C@]1(OC(C)=O)CO[C@@H]1C[C@@H]2O` [Taxol, Paclitaxel], the IC50 worked out at 0.3 ng/mL with HUVEC (setting [2]); 0.27 ng/mL in the experiment on HUVEC (setting [1]); 0.18 ng/mL in the experiment with HUVEC (Homo sapiens, HUVEC, read-out: IC50 in combination with 17E6, HUVEC, combination with 17E6); 0.13 ng/mL in the experiment with HUVEC (Homo sapiens, HUVEC, read-out: IC50 in combination with Cilengitide, HUVEC, combination with Cilengitide); 0.1 ng/mL in the experiment on HUVEC (Homo sapiens, HUVEC, read-out: IC50 in combination with DI-17E6, HUVEC, combination with DI-17E6). In the experiment on HUVEC, the “additive effect with Cilengitide” value was “yes”. For the same compound, in the experiment with HUVEC, the “additive effect with DI-17E6” value is recorded as “yes”. Besides, the “additive effect with Mab 17E6” value with HUVEC was “yes”.
In the case of `Cn1nnc2c(C(N)=O)ncn2c1=O` [Temozolmide], the “IC50 (in words)” value in the experiment on HUVEC (setting [2]) was “inactive”. In addition, in the experiment with HUVEC, the “additive effect with Cilengitide” value was “no”, the “additive effect with DI-17E6” value is “no” and the “additive effect with Mab 17E6” value is “no”.
Regarding `O=c1[nH]cc(F)c(=O)[nH]1` [5FU], the IC50 in the experiment with HUVEC (setting [2]) turned out to be 14500 nM. Further, in the experiment with HUVEC, the “additive effect with Cilengitide” value was “yes”, the “additive effect with DI-17E6” value is “yes” and the “additive effect with Mab 17E6” value is recorded as “yes”.
